In patent publication US20180177891A1, “Nanoparticle-Based Antigen Specific Immunotherapy” (Midatech Limited, priority 2015, published 2018):
One block for each molecule: values may come before it. Where no end group is shown, it is not given here.

Tests used:
[1] = test system: BDC-2.5 CD4+ T cells; experiment: BDC-2.5 CD4+ T cell proliferation in LNs and spleen after injection; assay type: in vivo, murine
Description: Increased proliferation is seen with GNPs coupled to antigen both in the draining and distant LN sites and spleen.
A similar in vivo protocol was designed, using fluorescently labelled indicator CD4^+ T cells (BDC-2.5, specific for chromograninA 342-355 found in pancreatic beta cells) and the peptide “BDC-2.5 mimotope” (a peptide of similar configuration to this epitope, that mimics the chromogranin A 342-355 peptide) coupled to GNPs linked to either mannose C2 or glucose C2.
A preliminary in vivo experiment was carried out using the murine BDC-2.5 mimotope peptide and fluorescently-labelled indicator CD4 T cell clones specific for this peptide described above. GNPs were given coupled to peptide (BDC-2.5 mimotope), IL-10, or both, and compared to blank GNPs of injected controls. […] This provides evidence that the cytokine travels with the GNPs to distant sites when complexed with GNPs, and in bioactive form. This is of enhanced efficiency compared to IL-10 alone.

[2] = test system: OT-II (ovalbumin peptide (323-339) specific) CD4+ T cells; experiment: Accumulation of fluorescent cells in LN of CCR7−/− mice; assay type: in vivo; conditions: CCR7−/− compared to wildtype B6 mice
Method: In order to determine whether the injected peptide is carried to draining LNs in fluid phase or carried via migratory skin DCs, homozygous knockout mice for the chemokine receptor CCR7 (which mediates DC migration from skin) were treated in the same protocol as above.

[3] = Solubility tests; assay type: physicochemical
Method: Given the low incorporation of 10% C19-A3 peptide into GNPs (3-5%) using the 75% methanol-based preparation method, solubility tests were performed to determine the optimal solution for C19-A3 peptide conjugation to gold nanoparticles. […] Therefore, water-based GNP synthesis methods were developed using low (10%) or intermediate (35%) levels of methanol, and vivaspin centrifugation to remove any unbound peptide. GNPs containing 10% C19-A3 peptide and 10% glucose C2 (NP58) or 10% mannose C2 (NP61) were synthesised using a water-based (10% methanol) method (Table 12). HPLC analysis of peptide released from the C19-A3-GNPs following treatment with KCN solution (100 mM), confirmed 100% and 62% incorporation efficiency of C19-A3 peptide, with 31 and 19 peptides bound per GNP, for NP58 and NP61, respectively. An intermediate 35% methanol preparation method was also tested for synthesis of 10% C19-A3, 10% glucose C2 GNPs (NP63). HPLC analysis again confirmed high incorporation of C19-A3 peptide (67%), with 20 peptides bound per GNP.

[4] = test system: OT-II (ovalbumin peptide (323-339) specific) CD4+ T cells; experiment: OT-II T cell proliferation in draining LN after intradermal injection; assay type: in vivo, C57BL/6 mice; conditions: 3 days later, flow cytometry
Method: PBS, ovalbumin peptide (323-339) or ovalbumin peptide (323-339) containing GNPs (NP167, NP168) were injected intradermally in C57BL/6 mice 24 h after i.v. administration of fluorescent cell trace violet (CTV)-labelled OT-II (ovalbumin peptide (323-339) specific) CD4+ T cells. 3 days later, draining LN cells were isolated and studied by flow cytometry. The presence of OT-II cells in the LN was shown by the appearance of cells of that are […] CD45.1^+Vα2^+ and high CTV fluorescence (right hand edge of square). Proliferation of OT-II cells was seen as dilution of the CTV fluorescence, bringing the cells progressively at each cell cycle into the blue box. The percentage of cells with the proliferation square is shown. […] Each plot represents the results from a different mouse.
PBS, ovalbumin peptide (323-339), or ovalbumin peptide (323-339) coupled GNPs (NP167, NP168) were administered intradermally to C57BL-6 mice, at the same time as i.v. administration of fluorescent cell trace violet (CTV) labelled OT-II (Ovalbumin peptide specific) CD4 positive T cells. Draining LN and spleen cells were harvested 3 days after ovalbumin (323-339) peptide administration, and studied by flow cytometry. Where fluorescent cells are seen but the level of fluorescence has been reduced, this implies that they have recognised their target peptide on APCs in that tissue and undergone cell division.

[5] = test system: Human immature monocyte derived dendritic cells (iDCs); experiment: Cytokine release by DCs after LPS (Luminex); assay type: cell-based
Method: iDCs were also incubated with proinsulin C19-A3 GNPs coupled to glucose (GNPgluc), with proinsulin C19-A3 GNPs coupled to mannose (GNPman), or without GNPs for 4 hrs. Thereafter, cells were washed and subsequently stimulated with 100 ng/ml LPS and left overnight. Supernatants were collected the next day and cytokine (IL-10, IL-12 and TNF) release by DCs measured using Luminex.
(§1) However, IL-10-GNPs changed the ability of DCs to upregulate HLA-DR and activation molecules CD80 and CD25 upon stimulation with LPS.

[6] = test system: Human immature monocyte derived dendritic cells (iDCs); experiment: DC maturation (CD80, HLA-DR expression, FACS); assay type: cell-based; conditions: subsequent stimulation with LPS
Method: Human immature monocyte derived dendritic cells (iDCs) were incubated with proinsulin C19-A3 coupled GNPs or without GNPs for 4 h. Thereafter, the GNPs were washed off and cells left overnight, either alone or in the presence of 100 ng/ml LPS. Overnight maturation of DCs was measured as increases of CD80 and HLA-DR expression using FACS.
as §1

Molecule: YVRPLWVRME [BDC-2.5 mimotope peptide, peptide that mimics the chromogranin A 342-355 peptide, reference compound]
accumulation of proliferating indicator cells in draining LN, distant LNs and spleen ([1]; 3 days after injection): modest accumulation of proliferating indicator cells

Molecule: ovalbumin (323-339) GNPs: ovalbumin (323-339) peptide GNPs
fluorescent cells accumulated in the LN [2]: reduced numbers of fluorescent cells

solubility in water [3]: highly soluble
Molecule: GSLQPLALEGSLQKRGIV [C19-A3 peptide, GSLQPLALEGSLQKRGIV]

Molecule: ISQAVHAAHAEINEAGR [ovalbumin peptide, Ovalbumin 323-339 peptide, reference compound]
OT-II cell accumulation and proliferation in draining LN [4]: low levels

B1: soluble IL-10: Human recombinant IL-10, not bound to nanoparticles (protein, UniProt P22301 19-178, looked up)
Interleukin-10: SPGQGTQSENSCTHFPGNLPNMLRDLRDAFSRVKTFFQMKDQLDNLLLKESLLEDFKGYLGCQALSEMIQFYLEEVMPQAENQDPDIKAHVNSLGENLKTLRLRLRRCHRFLPCENKSKAVEQVKNAFNKLQEKGIYKAMSEFDIFINYIEAYMTMKIRN
pro-inflammatory cytokine production (IL-12 and TNF) ([5]; LPS-treated DCs): reduced pro-inflammatory cytokine production
release of IL-10 in the culture ([5]; final IL-10 concentration 100 pg/ml): significantly higher release of IL-10
effect of IL-10 on proliferation of indicator T cells ([1]; preliminary in vivo experiment, IL-10 at the same concentration): no effect of proliferation
maturation of DCs upon LPS (phenotype) [6]: immature phenotype
